# Data as given in patent publication US20220081412A1, “QUINOLINYL-PYRAZINE-CARBOXAMIDE COMPOUNDS AND USES THEREOF” (The Regents of the University of Michigan, priority 2018, published 2022).
# System: NCI60 cell lines
# Test: NCI60 cell line panel
# Assay type: cell-based, human
# Procedure: The Developmental Therapeutics Program (DTP) of NCI has evaluated more than 100,000 pure compounds and more than 34,000 crude extracts against the panel of human tumor cell lines. The resultant data are analyzed using a program called COMPARE, that rank the entire database of tested compounds in the order of the similarity of the responses. […] Thus, the NCI60 databases is highly useful to the cancer research community. Further experiments were conducted that tested some of the active compounds in a panel of NCI60 cell line to relate our compounds with some known inhibitors to have an idea of possible mechanism of action.
# In order to understand the selectivity of these compounds in different cancer types, some of them were tested against a panel of 60 cell lines (Table XXXIX).
smiles,measurement,setting,value
"CCN(CC)CCCC(C)Nc1cnc(C(=O)Nc2cc(C)cc3cccnc23)cn1 (centres unmarked) [J4, 5-((5-(diethylamino)pentan-2-yl)amino)-N-(6-methylquinolin-8-yl)pyrazine-2-carboxamide]",GIPRCNT: % Growth inhibition,"Breast Cancer, BT-549",93.26%
same,GIPRCNT: % Growth inhibition,"Breast Cancer, HS 578T",79.89%
same,GIPRCNT: % Growth inhibition,"Breast Cancer, MCF7",57.27%
same,GIPRCNT: % Growth inhibition,"Breast Cancer, MDA-MB-231/ATCC",89.17%
same,GIPRCNT: % Growth inhibition,"Breast Cancer, MDA-MB-468",9.358%
same,GIPRCNT: % Growth inhibition,"Breast Cancer, T-47D",32.641%
same,GIPRCNT: % Growth inhibition,"CNS Cancer, SF-268",66.12%
same,GIPRCNT: % Growth inhibition,"CNS Cancer, SF-295",98.94%
same,GIPRCNT: % Growth inhibition,"CNS Cancer, SF-539",86.87%
same,GIPRCNT: % Growth inhibition,"CNS Cancer, SNB-19",89.24%
same,GIPRCNT: % Growth inhibition,"CNS Cancer, SNB-75",78.26%
same,GIPRCNT: % Growth inhibition,"CNS Cancer, U251",78.39%
same,GIPRCNT: % Growth inhibition,"Colon Cancer, COLO 205",37.0068%
same,GIPRCNT: % Growth inhibition,"Colon Cancer, HCC-2998",89.8%
same,GIPRCNT: % Growth inhibition,"Colon Cancer, HCT-15",59.89%
same,GIPRCNT: % Growth inhibition,"Colon Cancer, HCT-116",18.05%
same,GIPRCNT: % Growth inhibition,"Colon Cancer, HT29",37.31%
same,GIPRCNT: % Growth inhibition,"Colon Cancer, KM12",97.9%
same,GIPRCNT: % Growth inhibition,"Colon Cancer, SW-620",75.26%
same,GIPRCNT: % Growth inhibition,"Leukemia, CCRF-CEM",54.24%
same,GIPRCNT: % Growth inhibition,"Leukemia, HL-60(TB)",76.8%
same,GIPRCNT: % Growth inhibition,"Leukemia, K-562",25.88%
same,GIPRCNT: % Growth inhibition,"Leukemia, MOLT-4",46.46%
same,GIPRCNT: % Growth inhibition,"Leukemia, RPMI-8226",77.97%
same,GIPRCNT: % Growth inhibition,"Leukemia, SR",81.88%
same,GIPRCNT: % Growth inhibition,"Melanoma, LOX IMVI",87%
same,GIPRCNT: % Growth inhibition,"Melanoma, M14",98.61%
same,GIPRCNT: % Growth inhibition,"Melanoma, MALME-3M",107.0521%
same,GIPRCNT: % Growth inhibition,"Melanoma, MDA-MB-435",83.68%
same,GIPRCNT: % Growth inhibition,"Melanoma, SK-MEL-2",104.3875%
same,GIPRCNT: % Growth inhibition,"Melanoma, SK-MEL-5",83.12%
same,GIPRCNT: % Growth inhibition,"Melanoma, UACC-62",98.62%
same,GIPRCNT: % Growth inhibition,"Melanoma, UACC-257",71.75%
same,GIPRCNT: % Growth inhibition,"Non-Small Cell Lung Cancer, A549/ATCC",72.8%
same,GIPRCNT: % Growth inhibition,"Non-Small Cell Lung Cancer, EKVX",77.77%
same,GIPRCNT: % Growth inhibition,"Non-Small Cell Lung Cancer, HOP-62",91.15%
same,GIPRCNT: % Growth inhibition,"Non-Small Cell Lung Cancer, HOP-92",51.4%
same,GIPRCNT: % Growth inhibition,"Non-Small Cell Lung Cancer, NCI-H23",96.3%
same,GIPRCNT: % Growth inhibition,"Non-Small Cell Lung Cancer, NCI-H226",60.39%
same,GIPRCNT: % Growth inhibition,"Non-Small Cell Lung Cancer, NCI-H322M",84.18%
same,GIPRCNT: % Growth inhibition,"Non-Small Cell Lung Cancer, NCI-H460",79.5%
same,GIPRCNT: % Growth inhibition,"Non-Small Cell Lung Cancer, NCI-H522",96.8365%
same,GIPRCNT: % Growth inhibition,"Ovarian Cancer, IGROV1",68.68%
same,GIPRCNT: % Growth inhibition,"Ovarian Cancer, NCI/ADR-RES",92.67%
same,GIPRCNT: % Growth inhibition,"Ovarian Cancer, OVCAR-3",20.46%
same,GIPRCNT: % Growth inhibition,"Ovarian Cancer, OVCAR-4",58.85%
same,GIPRCNT: % Growth inhibition,"Ovarian Cancer, OVCAR-5",97.58%
same,GIPRCNT: % Growth inhibition,"Ovarian Cancer, OVCAR-8",86.9118%
same,GIPRCNT: % Growth inhibition,"Ovarian Cancer, SK-OV-3",103.7568%
same,GIPRCNT: % Growth inhibition,"Prostate Cancer, DU-145",80.68%
same,GIPRCNT: % Growth inhibition,"Prostate Cancer, PC-3",83.08%
same,GIPRCNT: % Growth inhibition,"Renal Cancer, 786-0",88.22%
same,GIPRCNT: % Growth inhibition,"Renal Cancer, A498",70.33%
same,GIPRCNT: % Growth inhibition,"Renal Cancer, ACHN",77.87%
same,GIPRCNT: % Growth inhibition,"Renal Cancer, CAKI-1",93.45%
same,GIPRCNT: % Growth inhibition,"Renal Cancer, RXF 393",72.29%
same,GIPRCNT: % Growth inhibition,"Renal Cancer, SN12C",77.92%
same,GIPRCNT: % Growth inhibition,"Renal Cancer, TK-10",86.86%
same,GIPRCNT: % Growth inhibition,"Renal Cancer, UO-31",63.33%
